ChEMBL document CHEMBL1135763, “Discovery of aminothiazole inhibitors of cyclin-dependent kinase 2: synthesis, X-ray crystallographic analysis, and biological activities” (J Med Chem, 2002)

How the values were obtained:
[1] = target: Cyclin-dependent kinase 1/cyclin B (Homo sapiens, UniProt P06493); experiment: Inhibitory activity against baculovirus expressed Cyclin dependent kinase 1-cyclinB; assay type: protein-complex assay
[2] = target: Cyclin-dependent kinase 4/cyclin D1 (Homo sapiens, UniProt P11802); experiment: Inhibitory activity against baculovirus expressed Cyclin dependent kinase 4-cyclinD1; assay type: protein-complex assay
[3] = target: Cyclin-dependent kinase 2/cyclin E (Homo sapiens, UniProt P24941); experiment: Inhibitory activity against baculovirus expressed Cyclin dependent kinase 2-cyclinE; assay type: protein-complex assay
A2780 = experiment: cells; settings: Homo sapiens
Description: Cytotoxic activity against A2780 human ovarian carcinoma cell line

Cyclin-dependent kinase 4/cyclin D1, sequence (P11802 whole entry): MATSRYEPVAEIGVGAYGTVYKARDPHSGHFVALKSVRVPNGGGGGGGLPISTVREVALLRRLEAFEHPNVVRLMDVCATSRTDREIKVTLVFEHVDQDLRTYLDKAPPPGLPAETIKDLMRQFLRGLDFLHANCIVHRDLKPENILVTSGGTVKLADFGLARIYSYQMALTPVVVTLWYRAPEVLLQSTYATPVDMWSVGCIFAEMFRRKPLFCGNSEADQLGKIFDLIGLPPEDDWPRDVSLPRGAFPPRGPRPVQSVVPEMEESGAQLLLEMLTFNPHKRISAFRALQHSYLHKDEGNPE
Cyclin-dependent kinase 4/cyclin D1, sequence (P24385 whole entry, further chain): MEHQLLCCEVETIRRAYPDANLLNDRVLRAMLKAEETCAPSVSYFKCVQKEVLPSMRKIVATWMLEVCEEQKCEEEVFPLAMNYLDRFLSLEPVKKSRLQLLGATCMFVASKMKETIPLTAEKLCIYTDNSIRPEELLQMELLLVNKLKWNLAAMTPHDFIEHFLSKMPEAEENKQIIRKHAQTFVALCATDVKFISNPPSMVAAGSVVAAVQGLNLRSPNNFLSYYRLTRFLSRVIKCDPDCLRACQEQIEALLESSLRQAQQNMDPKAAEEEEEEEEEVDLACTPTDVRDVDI

Compound	IC50 [1] [µM]	IC50 [2] [µM]	IC50 [3] [µM]	IC50 (A2780) [µM]
CC(=O)Nc1ncc(SCc2c(C)noc2C)s1	–	–	> 1	–
CC(=O)Nc1ncc(SCCOC(C)(C)C)s1	–	–	1.74	–
COC(=O)C(Sc1cnc(NC(C)=O)s1)C1CCCCC1 (configuration not stated)	–	–	> 1	–
CC(C)C(=O)N(C)c1ncc(SCc2ncc(C(C)(C)C)o2)s1	–	–	> 25	–
CC(C)(C)c1cnc(CSc2cnc(NS(=O)(=O)c3ccccc3)s2)o1	–	–	4.28	2.86
CC(=O)Nc1ncc(SCc2nnsc2Cl)s1	–	–	> 1	–
CC(=O)Nc1ncc(SCCc2cccc3ccccc23)s1	–	–	> 1	–
CC(=O)Nc1ncc(SCC(C)C)s1	–	–	> 1	–
CCN(C)C(=O)CSc1cnc(NC(C)=O)s1	–	–	> 25	–
CC(=O)Nc1ncc(SCc2ccncc2)s1	–	–	> 1	–
COCCSc1cnc(NC(C)=O)s1	–	–	> 1	–
CCC(CC)CSc1cnc(NC(C)=O)s1	–	–	> 1	–
CC(=O)Nc1ncc(SCC(O)CC(C)(C)C)s1 (configuration not stated)	–	–	2.81	–
CC(=O)Nc1ncc(SCC(=O)O)s1	–	–	> 25	–

The next compounds have a lower IC50 [3] than those just listed; values first:

IC50 [1] [µM]	IC50 [2] [µM]	IC50 [3] [µM]	IC50 (A2780) [µM]	Compound
0.03	0.64	0.004	1.54	CC(=O)Nc1ncc(SCc2ncc(CC3CCCCC3)o2)s1
> 0.25	–	0.25	–	CC(C)C(=O)Nc1ncc(S(=O)(=O)Cc2ncc(C(C)(C)C)o2)s1
0.03	0.9	0.005	0.05	CC(C)C(=O)Nc1ncc(SCc2ncc(C(C)(C)C)o2)s1
–	3.13	0.006	0.9	C[C@@H](C(=O)Nc1ncc(SCc2ncc(C(C)(C)C)o2)s1)c1ccccc1
–	–	0.06	–	C[C@H](C(=O)Nc1ncc(SCc2ncc(C(C)(C)C)o2)s1)c1ccccc1
0.03	> 1	0.003	1.5	CC(C)(C)c1cnc(CSc2cnc(NC(=O)Nc3c(Cl)cccc3Cl)s2)o1
0.01	0.39	0.002	0.24	CC(C)(C)c1cnc(CSc2cnc(NC(=O)Nc3c(F)cccc3F)s2)o1
0.018	2.99	0.025	0.64	CC(C)OC(=O)Nc1ncc(SCc2ncc(C(C)(C)C)o2)s1
–	–	0.2	–	CCc1coc(CSc2cnc(NC(C)=O)s2)n1
–	–	0.15	1.04	CC(C)(C)c1cnc(CSc2cnc(NC(=O)OCc3ccccc3)s2)o1
0.019	0.9	0.011	0.9	CC(C)(C)c1cnc(CSc2cnc(NC(=O)Nc3ccc(F)cc3)s2)o1
0.09	3.48	0.017	0.25	CC(C)(C)C(=O)Nc1ncc(SCc2ncc(C(C)(C)C)o2)s1
